# Assay results: patent publication US20060246106A1, “Infection resistant medical implants” (priority 2005, published 2006)
# Like-named read-outs stand apart in the source and are kept apart here.
# What was measured:
# Escherichia coli = assay: MIC/MBC, antibiotic dilutions in Mueller-Hinton Broth; assay type: cell-based; settings: E. coli, antibiotic alone
# Experimental: The term “MIC” refers to the lowest concentration of antibiotic that inhibits in vitro bacterial growth. The term “MBC” refers to the lowest concentration of antibiotic that totally kills 99.9% of the inoculum. The principle of the test is to add dilutions of an antibiotic to Mueller-Hinton Broth and a standard concentration of the inoculum. Tubes are incubated overnight and read visually for turbidity. The lowest concentration showing no visible growth is the MIC. To establish the MBC broth cultures showing no visible growth are sub-cultured onto appropriate agar and incubated to determine if the organism has been killed.
# in vivo = settings: dog
# Experimental: (§1) Serum samples were collected from the dogs at the same time as the samples for liver and kidney function tests.
# (§2) The analytical method for graft samples and serum samples was identical. The method used a HPLC system with a Hypersil 5 ODS column with UV detection at a wavelength of 254 nm. The mobile phase used was a 70:30 0.2M phosphate buffer pH 6.0: acetonitrile. The limit of detection for this method is 0.1 mg/Kg graft or 0.1 mg/litre serum.
# (§3) These samples were mixed 50:50 with methanol and left to stand for 1 minute. After this time the solution was centrifuged for 5 minutes at maximum speed in a Microcentaur centrifuge. The supernatant was then used for analysis.
# (§4) The analytical method for serum samples and graft samples was identical. The technique used to measure the tobramycin was Polarisation FluoroImmuno Assay (PFIA) using an Abbott FLX instrument using the reverse dilution protocol with a sample volume of 5 μl. The limit of detection for this method is 0.4 mg/Kg graft or 0.4 mg/litre serum.
# (§5) The serum samples were analysed directly using the Abbot FLX instrument.
# [1] = elution rate: rifampicin/tobramycin content remaining on the graft; assay type: in vivo; settings: graft harvested from dog, one line per dog; for concentration at 7 days / concentration at 14 days / concentration at 21 days: dog, explanted graft, other: graft implanted end to end in the infrarenal aorta
# Experimental: Two grafts were harvested after week 1, two grafts after week 2 and the final two grafts were harvested after week 3. Immediately after harvesting, the grafts were prepared for antibiotic analysis. […] The graft samples required the rifampicin to be extracted from the graft material. The extraction procedure was as follows. A volume of methanol equivalent to 3 times the dry weight of the graft was added. […] The supernatant was then injected directly into the HPLC. […] The graft samples required the tobramycin to be extracted from the graft material. The extraction procedure was as follows. […] The supernatant was then injected directly into the PFIA. The extraction was repeated on the same graft sample to ensure that all the tobramycin had been extracted.
# [2] = dog, in vivo
# Experimental: as §1, §2, §3, §4, §5
compound,measurement,setting,value
"CO[C@H]1/C=C/O[C@@]2(C)Oc3c(C)c(O)c4c(O)c(c(/C=N/N5CCN(C)CC5)c(O)c4c3C2=O)NC(=O)/C(C)=C\C=C\[C@H](C)[C@H](O)[C@@H](C)[C@@H](O)[C@@H](C)[C@H](OC(C)=O)[C@@H]1C [Rifampicin, rifampicin]",MBC,Escherichia coli,32.5 µg/mL
same,MIC,Escherichia coli,16.2 µg/mL
same,concentration at 1 day,in vivo,230 ng/mL
same,concentration at 3 day,in vivo,< 100 ng/mL
same,concentration at 7 day,in vivo,< 100 ng/mL
same,concentration at 14 day,in vivo,< 100 ng/mL
same,concentration at 21 day,in vivo,< 100 ng/mL
same,concentration at 7 days,"[1]; Implant Duration 7 Days, read-out: Rifampicin Content, 1st Extraction",890 ng/g
same,concentration at 7 days,"[1]; Implant Duration 7 Days, read-out: Rifampicin Content, 2nd Extraction",< 100 ng/g
same,concentration at 7 days,"[1]; Implant Duration 7 Days, read-out: Rifampicin Content, Total",890 ng/g
same,concentration at 14 days,"[1]; Implant Duration 14 Days, read-out: Rifampicin Content, 1st Extraction",730 ng/g
same,concentration at 14 days,"[1]; Implant Duration 14 Days, read-out: Rifampicin Content, 2nd Extraction",< 100 ng/g
same,concentration at 14 days,"[1]; Implant Duration 14 Days, read-out: Rifampicin Content, Total",730 ng/g
same,concentration at 21 days,"[1]; Implant Duration 21 Days, read-out: Rifampicin Content, 1st Extraction",340 ng/g
same,concentration at 21 days,"[1]; Implant Duration 21 Days, read-out: Rifampicin Content, 2nd Extraction",< 100 ng/g
same,concentration at 21 days,"[1]; Implant Duration 21 Days, read-out: Rifampicin Content, Total",340 ng/g
same,"Rifampicin Content, 1st Extraction",[1]; Implant Duration 7 Days,0.94 mg/Kg graft
same,"Rifampicin Content, 2nd Extraction",[1]; Implant Duration 7 Days,<0.1 mg/Kg graft
same,"Rifampicin Content, Total",[1]; Implant Duration 7 Days,0.94 mg/Kg graft
same,"Rifampicin Content, 1st Extraction",[1]; Implant Duration 14 Days,1.24 mg/Kg graft
same,"Rifampicin Content, 2nd Extraction",[1]; Implant Duration 14 Days,<0.1 mg/Kg graft
same,"Rifampicin Content, Total",[1]; Implant Duration 14 Days,1.24 mg/Kg graft
same,"Rifampicin Content, 1st Extraction",[1]; Implant Duration 21 Days,0.52 mg/Kg graft
same,"Rifampicin Content, 2nd Extraction",[1]; Implant Duration 21 Days,<0.1 mg/Kg graft
same,"Rifampicin Content, Total",[1]; Implant Duration 21 Days,0.52 mg/Kg graft
same,quantity of rifampicin equated to an average human,[2]; 1 day,1.15 mg
"NC[C@H]1O[C@H](O[C@H]2[C@H](O)[C@@H](O[C@H]3O[C@H](CO)[C@@H](O)[C@H](N)[C@H]3O)[C@H](N)C[C@@H]2N)[C@H](N)C[C@@H]1O [Tobramycin, tobramycin]",MBC,Escherichia coli,6.25 µg/mL
same,MIC,Escherichia coli,3.12 µg/mL
same,concentration at 1 day,in vivo,< 400 ng/mL
same,concentration at 3 day,in vivo,< 400 ng/mL
same,concentration at 7 day,in vivo,< 400 ng/mL
same,concentration at 14 day,in vivo,< 400 ng/mL
same,concentration at 21 day,in vivo,< 400 ng/mL
same,concentration at 7 days,"[1]; Implant Duration 7 Days, read-out: Tobramycin Content, 1st Extraction",4800 ng/g
same,concentration at 7 days,"[1]; Implant Duration 7 Days, read-out: Tobramycin Content, 2nd Extraction",< 400 ng/g
same,concentration at 7 days,"[1]; Implant Duration 7 Days, read-out: Tobramycin Content, Total",4800 ng/g
same,concentration at 14 days,"[1]; Implant Duration 14 Days, read-out: Tobramycin Content, 1st Extraction",510 ng/g
same,concentration at 14 days,"[1]; Implant Duration 14 Days, read-out: Tobramycin Content, 2nd Extraction",< 400 ng/g
same,concentration at 14 days,"[1]; Implant Duration 14 Days, read-out: Tobramycin Content, Total",510 ng/g
same,concentration at 21 days,"[1]; Implant Duration 21 Days, read-out: Tobramycin Content, 1st Extraction",< 400 ng/g
same,concentration at 21 days,"[1]; Implant Duration 21 Days, read-out: Tobramycin Content, 2nd Extraction",< 400 ng/g
same,concentration at 21 days,"[1]; Implant Duration 21 Days, read-out: Tobramycin Content, Total",< 400 ng/g
same,"Tobramycin Content, 1st Extraction",[1]; Implant Duration 7 Days,3.96 mg/Kg graft
same,"Tobramycin Content, 2nd Extraction",[1]; Implant Duration 7 Days,<0.4 mg/Kg graft
same,"Tobramycin Content, Total",[1]; Implant Duration 7 Days,3.96 mg/Kg graft
same,"Tobramycin Content, 1st Extraction",[1]; Implant Duration 14 Days,<0.4 mg/Kg graft
same,"Tobramycin Content, 2nd Extraction",[1]; Implant Duration 14 Days,<0.4 mg/Kg graft
same,"Tobramycin Content, Total",[1]; Implant Duration 14 Days,<0.4 mg/Kg graft
same,"Tobramycin Content, 1st Extraction",[1]; Implant Duration 21 Days,<0.4 mg/Kg graft
same,"Tobramycin Content, 2nd Extraction",[1]; Implant Duration 21 Days,<0.4 mg/Kg graft
same,"Tobramycin Content, Total",[1]; Implant Duration 21 Days,<0.4 mg/Kg graft
same,tobramycin present in the serum of the test dogs,[2],no detectable amount
same,Tobramycin Content (serum),[2]; 1 day,<0.4 mg/litre serum
same,Tobramycin Content (serum),[2]; 3 day,<0.4 mg/litre serum
same,Tobramycin Content (serum),[2]; 7 day,<0.4 mg/litre serum
same,Tobramycin Content (serum),[2]; 14 day,<0.4 mg/litre serum
same,Tobramycin Content (serum),[2]; 21 day,<0.4 mg/litre serum
